# Peptide text beside a SMILES is read from it. * marks the point of attachment. Cbz = O=C(OCc1ccccc1)*; CH2F = FC*
# Legend:
# [1] = test system: oesophageal cancer cell lines EC9706 and TE10; assay: Colony formation assay; format: cell-based, human
# Description: Oesophageal cancer cells were inoculated into 6-well plates at a density of 8×10^2 cells/well and treated with different concentrations of CAR. The cells were continuously cultured for two weeks until colonies visible to the naked eye had formed. Then, the supernatant was discarded, and crystal violet staining solution was added for 10 min. The cells were dried and photographed, and the colony formation rate was calculated.
# [2] = test system: PI3K/AKT signalling pathway in EC9706 cells; assay: Western blot, PI3K/AKT signalling pathway; format: cell-based, human
# Description: (§1) Oesophageal cancer cells were inoculated into a 6-well plate (5×10^5 cells/well). Cells were treated with different concentrations of CAR and then incubated for an additional 48 h. The cells were lysed using radio-immunoprecipitation assay (RIPA) buffer. The protein concentration was determined using a BCA kit. Proteins were separated by 8-12% sodium dodecyl sulfate-polyacrylamide gel electrophoresis (SDS-PAGE) and then transferred to a polyvinylidene fluoride (PVDF) membrane. The membrane was blocked with 5% nonfat milk for 1 h and then incubated with primary antibodies at 4 °C overnight. The membrane was then incubated with secondary antibodies for 1 h at room temperature. Finally, the membrane was imaged using a chemiluminescence imaging analyser. The greyscale value of each target protein band was analysed using the software provided with the analyser.
# [3] = test system: EC9706 and TE10 oesophageal cancer cells; assay: Hoechst 33258 staining, apoptosis; format: cell-based, human
# Description: Cells were seeded into 24-well plates (3×10^4 cells/well). The cells were treated with different concentrations of CAR and then incubated for 48 h, followed by fixation with 4% paraformaldehyde for 30 min and one wash with PBS. The cells were stained with Hoechst 33258 (50 ng/ml) for 30 min. Apoptotic cells were observed using a fluorescence microscope (apoptotic cells were characterized by dense chromatin), and five randomly selected fields were used for cell counting.
# EC9706 and TE10 cells [4] = assay: Transwell migration assay; format: cell-based, human
# Description: (§2) A total of 100 μL of Matrigel was placed in the upper chamber of a Transwell system and incubated at 37 °C for 2 h to form a white membrane visible to the naked eye. Cells were resuspended in serum-free medium and adjusted to a concentration of 3×10^4 cells/well. Medium containing 10% FBS was added into the lower chamber, and CAR was added based on a concentration gradient. Next, the cells were incubated for 48 h and then stained with crystal violet for 10 min. Then, an inverted microscope was used to observe the cells; five fields were randomly selected to observe and count the cells. To assess cell migration, all the above steps were repeated, but Matrigel was not added to the upper chamber.
# EC9706 cells [5] = assay: MTT assay, cell viability and IC50; format: cell-based, human
# Description: (§3) EC9706 and TE10 oesophageal cancer cells in the logarithmic growth phase were harvested and inoculated into 96-well plates at a density of 3000 cells/well. The cells were cultured in an incubator for 12 h and then treated with different concentrations of CAR and DMSO. The NC group was also set up. After incubation for 24 h or 48 h, 10 µL of MTT solution (5 mg/ml) was added to each well. The supernatant was aspirated, and 100 µL of DMSO was added to each well. The absorbance at a wavelength of 490 nm was measured using a microplate reader.
# TE10 cells = assay: MTT assay, cell viability and IC50; format: cell-based, human
# Description: as §3
# [6] = test system: human normal oesophageal cells (HET-1A); assay: MTT assay, IC50 in normal cells; format: cell-based; details: 24 h and 48 h
# Description: as §3
# (§4) Supplementary Figure 1 (A -D) EC9706 and TE10 cells were treated with different concentrations of CAR or DMSO, and cell viability and the IC50 at 24 h and 48 h were examined by MTT assay. (E-H) HET-1A and GES-1 cells were treated with different […]
# (§5) examined by MTT assay. (I-J) EC9706 cells were incubated with CAR or the caspase inhibitor Z-VAD- FMK or co-incubated, and mitochondrial apoptosis pathway- related proteins were detected by Western blot. […]
# (§6) reverse the expression of Bcl2, Bax, Bad, caspase- 3, and cleaved caspase- 3. (K and L) The apoptosis of EC9706 cells after applying the caspase inhibitor Z-VAD- FMK was detected by […]
# (§7) (1 picture or pasted object on this page, not shown here)
# [7] = test system: normal gastric epithelial cells (GES-1); assay: MTT assay, IC50 in normal cells; format: cell-based, human; details: GES-1, 24 h and 48 h
# Description: as §3, §4, §5, §6, §7
# [8] = test system: oesophageal cancer cell lines EC9706 and TE10; assay: Crystal violet staining, cell proliferation; format: cell-based, human; details: 4, 6, 8, 10 µM; 24 h and 48 h; similar in MTT assay
# Description: Oesophageal cancer cells at a density of 3×10^4 cells/well were seeded in 24-well plates. Then, the cells were treated with different concentrations of prepared CAR or DMSO, and the NC group was set up. After incubation in an incubator for 24 h and 48 h, crystal violet staining solution was added to each well. After imaging under a scanner, the cells were fully dissolved in 20% acetic acid solution. To calculate cell viability, the optical density (OD) value of each well was measured at 590 nm using an enzyme-linked immunosorbent assay (ELISA) spectrophotometer.
# PCNA in EC9706 cells = assay: Western blot, proliferation marker; format: cell-based, human; details: 48 h
# Description: as §1
# [9] = test system: Bad, Bax, Bcl-2, PARP, caspase-3 in EC9706 cells; assay: Western blot, apoptosis-related proteins; format: cell-based, human; details: 48 h
# Description: as §1
# [10] = test system: E-cadherin, N-cadherin, vimentin, Snail, MMP2, MMP7, MMP9 in EC9706 cells; assay: Western blot, EMT-related marker proteins and MMPs; format: cell-based, human
# Description: as §1
# [11] = test system: EC9706 and TE10 oesophageal cancer cells; assay: Wound healing assay; format: cell-based, human; details: within 24 h
# Description: Oesophageal cancer cells were seeded into 6-well plates (5×10^5 cells/well) and then linearly scratched with a 10-μL pipette tip. After treatment for 24 h with different concentrations of CAR, cell migration was observed using an inverted microscope.
# EC9706 and TE10 cells [12] = assay: Transwell Matrigel invasion assay; format: cell-based, human; details: 48 h
# Description: as §2
# EC9706 xenograft = assay: EC9706 tumour xenograft model, tumour growth; format: in vivo, nude mice; details: 5, 15 or 25 mg/kg by gavage once every three days, compared with control group
# Description: (§8) A suspension of EC9706 cells (2×10^7 cells/ml) was injected into the middle of and posterior to the armpit of 4- to 6-week-old male nude mice. One week after inoculation, a soybean-sized subcutaneous mass appeared in the armpits of the mice. Then, different doses of CAR (5, 15, or 25 mg/kg) or sodium carboxymethyl cellulose (CMC), which served as a control, were administered by gavage once every three days. The body weights of the mice and tumour size were measured at the same time. Mice were euthanized 26 days after drug administration. Immunohistochemistry (IHC) was used to stain the tumours, and stomach tissue was stained with haematoxylin-eosin (HE).
# [13] = test system: PCNA, p-PI3K, p-AKT, Bcl2, vimentin; assay: Immunohistochemistry of xenograft tumour tissue; format: in vivo, nude mice; details: with increasing CAR concentrations
# Description: A suspension of EC9706 cells (2×10^7 cells/ml) was injected into the middle of and posterior to the armpit of 4- to 6-week-old male nude mice. One week after inoculation, a soybean-sized subcutaneous mass appeared in the armpits of the mice. Then, different doses of CAR (5, 15, or 25 mg/kg) or sodium carboxymethyl cellulose (CMC), which served as a control, were administered by gavage once every three days. The body weights of the mice and tumour size were measured at the same time. Mice were euthanized 26 days after drug administration. Immunohistochemistry (IHC) was used to stain the tumours, and stomach tissue was stained with haematoxylin-eosin (HE). Tumour tissues were fixed with 4% paraformaldehyde and embedded in paraffin. Paraffin-embedded tissue blocks were cut into slices with a thickness of 3-5 mm. Tumour sections were immunohistochemically stained with PCNA (1:100), Bcl-2 (1:100), vimentin (1:100), phosphorylated Akt (1:100), and phosphorylated PI3K (1:100) antibodies according to the steps of the immunohistochemistry kit. For HE staining, tissues were sectioned after deparaffinization, stained with haematoxylin and eosin, and mounted on slides with neutral gum.
# [14] = Body weight of xenograft mice; format: in vivo, nude mice; details: 5, 15 or 25 mg/kg by gavage, compared with control group
# Description: as §8
# [15] = HE staining of important organs; format: in vivo, nude mice; details: treatment group vs control group
# Description: as §8
# Tumour tissues were fixed with 4% paraformaldehyde and embedded in paraffin. Paraffin-embedded tissue blocks were cut into slices with a thickness of […]. Tumour sections were immunohistochemically stained with PCNA (1:100), Bcl-2 (1:100), vimentin (1:100), phosphorylated Akt (1:100), and phosphorylated PI3K (1:100) antibodies according to the steps of the immunohistochemistry kit. For HE staining, tissues were sectioned after deparaffinization, stained with haematoxylin and eosin, and mounted on slides with neutral gum.
# [16] = Blood routine related indexes; format: in vivo, nude mice; details: Mean±SD (n=3)
# Description: as §8
# [17] = Serum ALT, AST and CR levels; format: in vivo, nude mice; details: mean±SD (n=3)
# Description: as §8
# EC9706 cells [18] = assay: Annexin V-FITC/PI flow cytometry, apoptosis; format: cell-based, human; details: co-incubation with CAR
# Description: After the oesophageal cancer cells were treated with different concentrations of CAR for 48 h, the cells were digested with trypsin, washed twice with PBS, and resuspended in 1× loading buffer. The cells were double-stained with 5 µL of annexin V-FITC and 5 μL of PI and then incubated in the dark for 30 min before flow cytometry analysis.
# [19] = 48 h, compared with control group
# [20] = 5 mg/kg by gavage once every three days
# [21] = 15 mg/kg by gavage once every three days
# [22] = 25 mg/kg by gavage once every three days
compound,measurement,setting,value
740Y-P [reference compound],effect of PI3K agonist on antiproliferation effect of CAR,"[1]; MTT and colony formation assays, co-incubation with CAR",could partially reverse the antiproliferation effect of CAR
same,effect of PI3K agonist on CAR inhibition of PI3K/AKT,[2]; co-incubation with CAR,eliminated the inhibitory effect of CAR on PI3K/AKT in oesophageal cancer cells
same,effect of PI3K agonist on apoptosis-promoting effect of CAR,"[3]; Hoechst 33258 staining and flow cytometry, co-incubation with CAR",could partially reverse the apoptosis-promoting effect of CAR on EC9706 and TE10 cells
same,effect of PI3K agonist on anti-migration and anti-invasion effects of CAR,"EC9706 and TE10 cells [4]; scratch healing, Transwell migration and invasion assays, co-incubation with CAR",can partially reverse the anti-migration and anti-invasion effects of CAR on oesophageal cancer cells
"COc1cc(O)cc(O)c1C(=O)/C=C/c1ccccc1 [CAR, Cardamonin]",IC50,EC9706 cells [5]; 24 h,12.2 µM
same,IC50,EC9706 cells [5]; 48 h,8.67 µM
same,IC50,TE10 cells; 24 h,12.5 µM
same,IC50,TE10 cells; 48 h,8.4 µM
same,IC50 in normal cells compared with oesophageal cancer cells,[6],higher IC50 values
same,IC50 in normal cells compared with oesophageal cancer cells,[7],higher IC50 values
same,cell proliferation,[8],inhibited oesophageal cancer cell proliferation in time- and concentration-dependent manners
same,colony formation,[1]; two weeks culture,significant inhibitory effect on the colony formation of oesophageal cancer cells in a concentration-dependent manner
same,PCNA expression,PCNA in EC9706 cells,significantly inhibited PCNA expression
same,expression of anti-apoptosis-related proteins,[9],"downregulated the expression level of the anti-apoptosis-related proteins Bcl-2, PARP, and caspase-3"
same,expression of pro-apoptosis-related proteins,[9],"upregulated the expression levels of the pro-apoptosis-related proteins Bad, Bax, cleaved PARP, and cleaved caspase-3"
same,E-cadherin expression,[10],upregulated the expression of E-cadherin
same,"MMP2, MMP7 and MMP9 expression",[10],"significantly reduced the expression of MMP2, MMP7, and MMP9"
same,"N-cadherin, vimentin and Snail expression",[10],significantly downregulated the expression of N-cadherin and vimentin as well as the EMT transcription factor Snail
same,protein levels of p-PI3K and p-AKT,"[2]; EC9706 cells, with increasing CAR concentrations",decreased significantly
same,number of apoptotic cells,[3]; [19],gradually increased with increasing drug concentrations
same,healing rate,[11],gradually decreased with increases in the CAR concentration
same,cell migration,EC9706 and TE10 cells [4]; [19],significantly inhibited oesophageal cancer cell migration
same,invasive ability,EC9706 and TE10 cells [12],significantly inhibited the invasive ability of oesophageal cancer cells
same,tumour growth,EC9706 xenograft,significantly inhibited tumour growth
same,"expression of PCNA, p-PI3K, p-AKT, Bcl2 and vimentin in tumour",[13],"the expression levels of PCNA, p-PI3K, p-AKT, Bcl2, and vimentin were downregulated"
same,weight of mice,[14],did not significantly change
same,HE staining of important organs,[15],no difference in HE staining was observed between the treatment group and the control group
same,Gran,[16]; [20],25.43±2.58%
same,HCT,[16]; [20],39.87±7.80%
same,HGB,[16]; [20],131.33 ± 6.51 g/L
same,LYM,[16]; [20],70.80±4.07%
same,MCH,[16]; [20],20.07 ± 0.93 pg
same,MCHC,[16]; [20],348.00 ± 12.77 g/L
same,MCV,[16]; [20],57.63 ± 1.50 fL
same,Mon,[16]; [20],3.77±1.95%
same,PLT,[16]; [20],1009±44.24 ×10^9/L
same,RBC,[16]; [20],6.91±1.49 ×10^12/L
same,WBC,[16]; [20],3.90±0.17 ×10^9/L
same,Gran,[16]; [21],24.53±2.28%
same,HCT,[16]; [21],35.77±1.86%
same,HGB,[16]; [21],137.00 ± 19.00 g/L
same,LYM,[16]; [21],72.30±3.15%
same,MCH,[16]; [21],19.40 ± 2.07 pg
same,MCHC,[16]; [21],332.33 ± 19.09 g/L
same,MCV,[16]; [21],58.33 ± 2.78 fL
same,Mon,[16]; [21],3.17±1.01%
same,PLT,[16]; [21],1074.00±42.80 ×10^9/L
same,RBC,[16]; [21],6.13±0.08 ×10^12/L
same,WBC,[16]; [21],3.82±0.07 ×10^9/L
same,Gran,[16]; [22],23.53±2.25%
same,HCT,[16]; [22],34.30±2.17%
same,HGB,[16]; [22],142.33 ± 5.69 g/L
same,LYM,[16]; [22],74.13±1.53%
same,MCH,[16]; [22],17.93 ± 0.49 pg
same,MCHC,[16]; [22],336.00 ± 7.00 g/L
same,MCV,[16]; [22],56.03 ± 1.56 fL
same,Mon,[16]; [22],3.20±0.87%
same,PLT,[16]; [22],1077.00±42.58 ×10^9/L
same,RBC,[16]; [22],6.42±0.19 ×10^12/L
same,WBC,[16]; [22],3.80±0.14 ×10^9/L
same,ALT,[17]; [20],25.97±1.19 U/L
same,AST,[17]; [20],57.56±2.19 U/L
same,CR,[17]; [20],51.41 ± 4.33 µmol/L
same,ALT,[17]; [21],23.50±2.88 U/L
same,AST,[17]; [21],55.38±3.26 U/L
same,CR,[17]; [21],49.61 ± 6.54 µmol/L
same,ALT,[17]; [22],21.04±2.52 U/L
same,AST,[17]; [22],57.20±4.16 U/L
same,CR,[17]; [22],53.34 ± 7.72 µmol/L
COC(=O)C[C@H](NC(=O)[C@H](C)NC(=O)[C@@H](NC(=O)OCc1ccccc1)C(C)C)C(=O)CF [Z-VAD-FMK] (Cbz-Val-Ala-Asp(OMe)-CH2F),effect of caspase inhibitor pretreatment on CAR-induced apoptosis,EC9706 cells [18],could reverse the apoptosis induced by CAR
